Results reported in US9955689B2, “Method for promoting plant growth” (SUMITOMO CHEMICAL COMPANY, LIMITED, priority 2012, dated 2018).

Each compound was assayed on Nicotiana benthamiana (assay: Test Example 6: growth promotion under low-temperature stress by hydroponics of Nicotiana benthamiana (0.1 ppm)). Conditions: compound at 0.1 ppm, 7 days at 1.5±1.0° C. low-temperature stress, then 3 days at 22° C., 5 or greater = growth promotion effect, read-out: value of a relative leaf area (Equation (1), area of green leaf).
Assay type: in vivo
Method: Test Example 6. Test for Evaluating Growth Promotion Under Low-Temperature Stress by Hydroponics of Nicotiana benthamiana
(§1) (Cultivation and Compound Treatment)
A DMSO solution, which contained one of the compounds 2, 3, 7, 11 to 13, 20, 23, 24, 30, 38, 39, 41 to 43, 46, 50, 64, 68, 80, 82, 88, 93, 94, 96, 104, 107, and 112 of the present invention at a concentration of […], was prepared. The DMSO solution of the compound of the present invention was added at a volume ratio of 1/1,000 to the Murashige⋅Scoog medium of a ½-fold concentration (a medium containing 2.3 g of mixed salts (manufactured by Wako Pure Chemical Industries, Ltd.), 200 mg of Myo-inositol (manufactured by Sigme-Aldrich Co. LLC.), 2 mg of niconitic acid (manufactured by Wako Pure Chemical Industries, Ltd.), 2 mg of pyridoxine hydrochloride (manufactured by Wako Pure Chemical Industries, Ltd.), 20 mg of thiamine hydrochloride (manufactured by Wako Pure Chemical Industries, Ltd.), 20 g of sucrose (manufactured by Wako Pure Chemical Industries, Ltd.), and 1 g of […] (manufactured by DOJINDO LABORATORIES) respectively per 1 L of water and having pH adjusted to 5.8), thereby preparing a medium containing the compound of the present invention at a concentration of 0.1 ppm.
(§2) Seeds of Nicotiana benthamiana were seeded in the 5 μL of the medium and cultured overnight at 22° C. Thereafter, 45 μL of the medium containing the compound of the present invention at a concentration of 0.1 ppm was added thereto, and the seeds are cultured for 7 days at 22° C. under the conditions of an illuminance of 4,000 lux, and a day length of 16 hours, and the seedlings raised from the Nicotiana benthamiana were treated with the compound. Moreover, instead of the above medium a test plot, which was obtained by performing the same treatment by using a medium prepared by adding DMSO to the Murashige′Scoog medium of ½-fold concentration at a volume ratio of 1/1,000, was used as a control plot not treated with the compound.
(§3) (Low-Temperature Stress Treatment)
(§4) The seedlings of the Nicotiana benthamiana treated with the compound were subjected to low-temperature treatment by being cultured for 7 days at 1.5±1.0° C., under the conditions of an illuminance of 2,000 lux, and a day length of 16 hours.
The seedlings of the Nicotiana benthamiana having undergone the low-temperature stress treatment were cultured for 3 days at 22° C., under the conditions of an illuminance of 4,000 lux, and a day length of 16 hours. Thereafter, the area of green leaf was quantified by Scanalyzer HTS (manufactured by LemnaTec GmbH). Moreover, the value of the control plot not treated with the compound that had not yet been subjected to the low-temperature stress treatment was measured in the same manner. A value of a relative leaf area was calculated based on the following equation (1), and if the relative value of leaf area was 5 or greater, the compound was evaluated to have a growth promotion effect. As a result of the evaluation, it was confirmed that when the plant was treated with one of the compounds 2, 3, 7, 11 to 13, 20, 23, 24, 30, 38, 39, 41 to 43, 46, 50, 64, 68, 80, 82, 88, 93, 94, 96, 104, 107, and 112 of the present invention at 0.1 ppm, the value of a relative leaf area was 5 or greater, compared to the area of green leaf of the control plot not treated with compound. Accordingly, it was confirmed that the treatment using the compound of the present invention improve a growth promotion effect. Relative leaf area=100*(a green area of a plot treated with the compound of the present invention minus(−) a green area of a plot not treated with the compound of the present invention)/(a green area of a control plot not treated with the compound of the present invention that had not yet been subjected to low-temperature stress treatment minus(−) green area of a control plot not treated with the compound of the present invention) Equation (1): […]

| SMILES | relative green leaf area at 0.1 ppm |
| --- | --- |
| O=C(O)c1cc2cc(-c3cccc(Cl)c3)ccc2s1 [Present compound 38, 5-(3-chlorophenyl)benzo[b]thiophene-2-carboxylic acid] | ≥ 5% |
| C=Cc1ccc2cc(C(=O)O)sc2c1 [Present compound 30, 6-vinylbenzo[b]thiophene-2-carboxylic acid] | ≥ 5% |
| O=C(O)c1cc2cc(-c3ccncc3)ccc2s1 [Present compound 46, 5-(4-pyridyl)benzo[b]thiophene-2-carboxylic acid] | ≥ 5% |
| Cc1ccccc1Oc1cccc2cc(C(=O)O)sc12 [Present compound 94, 7-(2-methylphenoxy)benzo[b]thiophene-2-carboxylic acid] | ≥ 5% |
| O=C(O)c1cc2cc(F)ccc2s1 [Present compound 2, 5-fluorobenzo[b]thiophene-2-carboxylic acid] | ≥ 5% |
| O=C(O)c1sc2ccccc2c1O [Present compound 80, 3-hydroxybenzo[b]thiophene-2-carboxylic acid] | ≥ 5% |
| Cc1c(C(=O)O)sc2ccccc12 [Present compound 24, 3-methylbenzo[b]thiophene-2-carboxylic acid] | ≥ 5% |
| O=C(O)c1cc2cc(-c3ccc(Cl)cc3)ccc2s1 [Present compound 39, 5-(4-chlorophenyl)benzo[b]thiophene-2-carboxylic acid] | ≥ 5% |
| O=C(O)c1cc2cc(-c3cccs3)ccc2s1 [Present compound 50, 5-(2-thienyl)benzo[b]thiophene-2-carboxylic acid] | ≥ 5% |
| O=C(O)c1cc2cccc(Oc3ccc(OC(F)(F)F)cc3)c2s1 [Present compound 96] | ≥ 5% |
| O=C(O)c1sc2ccccc2c1OCc1ccccc1 [Present compound 88, 3-benzyloxybenzo[b]thiophene-2-carboxylic acid] | ≥ 5% |
| COc1c(C(=O)O)sc2ccc(C(F)(F)F)cc12 [Present compound 112, 3-methoxy-5-trifluoromethylbenzo[b]thiophene-2-carboxylic acid] | ≥ 5% |

The compounds below were run on Nicotiana benthamiana (assay: Test Example 5: growth promotion under low-temperature stress by hydroponics of Nicotiana benthamiana (1 ppm)). Conditions: compound at 1 ppm, 7 days at 1.5±1.0° C. low-temperature stress, then 3 days at 22° C., 5 or greater = growth promotion effect, read-out: value of a relative leaf area (Equation (1), area of green leaf).
Assay type: in vivo
Method: Test Example 5. Test for Evaluating Growth Promotion Under Low-Temperature Stress by Hydroponics of Nicotiana benthamiana
as §1
A DMSO solution, which contained one of the compounds 9, 10, 15, 16, 27 to 29, 31 to 37, 40, 44, 47, 48, 52, 55, 56, 58, 61, 63, 81, 87, 89, 92, 95, 98, 100, 102, 105, 108, 109, 111, 113, and 115 of the present invention at a concentration of 1,000 ppm, was prepared. The DMSO solution of the compound of the present invention was added at a volume ratio of 1/1,000 to the Murashige-Scoog medium of a ½-fold concentration (a medium containing 2.3 g of mixed salts (manufactured by Wako Pure Chemical Industries, Ltd.), 200 mg of Myo-inositol (manufactured by Sigme-Aldrich Co. LLC.), 2 mg of niconitic acid (manufactured by Wako Pure Chemical. Industries, Ltd.), 2 mg of pyridoxine hydrochloride (manufactured by Wako Pure Chemical Industries, Ltd.), 20 mg of thiamine hydrochloride (manufactured by Wako Pure Chemical Industries, Ltd.), 20 g of sucrose (manufactured by Wako Pure Chemical Industries, Ltd.), and 1 g of MES (manufactured by DOJINDO LABORATORIES) respectively per 1 L of water and having pH adjusted to 5.8), thereby preparing a medium containing the compound of the present invention at a concentration of 1 ppm.
as §2, with “1” for “0.1”, “Murashige⋅Scoog” for “Murashige′Scoog”
as §3, §4
The seedlings of the Nicotiana benthamiana having undergone the low-temperature stress treatment were cultured for 3 days at 22° C. under the conditions of an illuminance of 4,000 lux, and a day length of 16 hours. Thereafter, the area of green leaf was quantified by Scanalyzer HTS (manufactured by LemnaTec GmbH). Moreover, the value of the control plot not treated with the compound that had not yet been subjected to the low-temperature stress treatment was measured in the same manner. A value of a relative leaf area was calculated based on the following equation (1), and if the relative value of leaf area was 5 or greater, the compound was evaluated to have a growth promotion effect. As a result of the evaluation, it was confirmed that when the plant was treated with one of the compounds 9, 10, 15, 16, 27 to 29, 31 to 37, 40, 44, 47, 48, 52, 55, 56, 58, 61, 63, 81, 87, 89, 92, 95, 98, 100, 102, 105, 108, 109, 111, 113, and 115 of the present invention at 1 ppm, the value of a relative leaf area was 5 or greater, compared to the area of green leaf of the control plot not treated with compound. Accordingly, it was confirmed that the treatment using the compound of the present invention improve a growth promotion effect. Relative leaf area=100*(a green area of a plot treated with the compound of the present invention minus(−) a green area of a plot not treated with the compound of the present invention)/(a green area of a control plot not treated with the compound of the present invention that had not yet been subjected to low-temperature stress treatment minus(−) a green area of a control plot not treated with the compound of the present invention) Equation (1): […]

| SMILES | relative leaf area at 1 ppm |
| --- | --- |
| O=C(O)c1sc2ccccc2c1C(=O)O [Present compound 55, benzo[b]thiophene-2,3-dicarboxylic acid] | ≥ 5% |

These compounds were tested on Corn (Variety: Pioneer 31P41) (assay: Test Example 8: growth promotion under low-temperature stress by corn seed treatment). Conditions: corn seed treatment: compound 21 0.5 g, compound 55 0.5 g, 5 g or 50 g per 100 kg corn seeds; 4 days at 2.5±1° C., then 4 days at 27° C.
Assay type: in vivo
Method: Test Example 8. Test for Evaluating Growth Promotion Under Low-Temperature Stress by Corn Seed Treatment
Corn (Variety: Pioneer 31P41 (Manufactured by Pioneer Hi-Bred Japan)
A blank slurry solution containing 10% (V/V) color coat red (Becker Underwood, Inc.), 10% (V/V) CF-Clear (Becker Underwood, Inc.), and 1.66% Maxim4FS (Syngenta) was prepared. The compound 21 of the present invention was dissolved in the blank slurry such that 0.5 g of the compound was used for treatment per 100 kg corn seeds, and the compound 55 of the present invention was dissolved in the blank slurry such that 0.5 g, 5 g or 50 g of the compound was used for treatment per 100 kg corn seeds respectively, thereby preparing a slurry solution.
Zero point three five (0.35) ml of the slurry solution per 14.4 g of the seeds was put into a 50 ml centrifugal settling tube (manufactured by Becton, Dickinson and Company, Japan), and the slurry solution was stirred until it dries, thereby coating the seeds. Moreover, the seeds coated with the blank slurry were used as seeds for an untreated control plot. […]
After low-temperature stress treatment was performed, the seeds were cultured for 4 days at 27° C., under the conditions of an illuminance of 5,000 lux, and a day length of 16 hours. Thereafter, a fresh weight of the aerial part in plant was measured, and an average weight of each individual was determined. […]

| SMILES | fresh weight of the aerial part compared with the untreated control plot |
| --- | --- |
| O=C(O)c1sc2ccccc2c1C(=O)O [Present compound 55, benzo[b]thiophene-2,3-dicarboxylic acid] | larger |
| Cc1ccc2sc(C(=O)O)cc2c1 [Present compound 21] | larger |
